Holding throughout (type): cell-based
One experiment deals with Alternaria solani. Put plainly: Activity against early blight caused by Alternaria solani (microtiter plate). Conditions: active alone.
For another experiment, the system named is Septoria tritici. Nature of the experiment: Activity against leaf blotch on wheat caused by Septoria tritici (microtiter plate). Conditions: active alone.
A further experiment deals with Leptosphaeria nodorum. Put plainly: Activity against wheat leaf spots caused by Leptosphaeria nodorum (microtiter plate).
Another experiment relates to Pyricularia oryzae. The note with it: active alone.
The test system of the next experiment is Botrytis cinerea. Nature of the experiment: Activity against the grey mold Botrytis cinerea in the microtiterplate test. Conditions: active alone.
Setting [1] is: Parastagonospora nodorum, 168 h, active alone, read-out: Observed efficacy.

Where two headings read alike, the source gives them in different places.

Regarding `CCCCCCCCc1c(CC)nc2ncnn2c1N` [Ametoctradin], the Observed efficacy in the experiment with Alternaria solani (4 ppm) is on record as 4%; with Septoria tritici (4 ppm), 13%; in the experiment with Leptosphaeria nodorum (active alone, 4 ppm) it was 31%; in the experiment on Pyricularia oryzae (4 ppm), 12%.

In the case of `CO/C=C(/C(=O)OC)c1ccccc1Oc1cc(Oc2ccccc2C#N)ncn1` [Azoxystrobin], the Observed efficacy in the experiment with Septoria tritici (0.25 ppm) was determined as 65%.

For `CC(C)[C@H](NC(=O)O)C(=O)N[C@H](C)c1nc2ccc(F)cc2s1` [Benthiavalicarb], the Observed efficacy with Septoria tritici (4 ppm) turned out to be 10%; in the experiment with Leptosphaeria nodorum (active alone, 4 ppm) it was 27%; with Pyricularia oryzae (4 ppm) it was 3%.

`O=C(Nc1ccccc1-c1ccc(Cl)cc1)c1cccnc1Cl` [Boscalid]: the inhibition of growth at 16 ppm with Leptosphaeria nodorum (setting [1]) was found to be 25%. The Observed efficacy in the experiment with Pyricularia oryzae (16 ppm) worked out at 6%.

Take `COC(=O)Nc1nc2ccccc2[nH]1` [Carbendazim]: the figures for the Observed efficacy with Alternaria solani (4 ppm), with Septoria tritici (0.016 ppm) and in the experiment with Botrytis cinerea (0.063 ppm) were 35%, 0% and 75%, respectively.

As to `N#Cc1c(Cl)c(Cl)c(Cl)c(C#N)c1Cl` [Chlorothalonil], the Observed efficacy in the experiment with Alternaria solani (1 ppm) was 17%; with Botrytis cinerea (4 ppm), 58%. The inhibition of growth at 1 ppm in the experiment with Leptosphaeria nodorum (setting [1]) turned out to be 22%.

In the case of `N#CC1=C(C#N)SC(C#N)=C(C#N)S1` [Compound I.A, 2,3,5,6-tetracyano-[1,4]dithiine], the Observed efficacy with Alternaria solani (1 ppm) came to 11%; with Alternaria solani (4 ppm) it was 46%; with Septoria tritici (0.016 ppm), 8%; with Septoria tritici (1 ppm), 18%; in the experiment on Septoria tritici (4 ppm), 74%; with Botrytis cinerea (0.063 ppm), 1%. Moreover, the Observed efficacy is 14% in the experiment on Botrytis cinerea (4 ppm) and 20% in the experiment on Pyricularia oryzae (4 ppm). The inhibition of growth at 4 ppm in the experiment with Leptosphaeria nodorum (Parastagonospora nodorum, 168 h, read-out: Observed efficacy) was 53%. Also, the inhibition of growth at 1 ppm in the experiment with Leptosphaeria nodorum (setting [1]) came out at 7%.

As for `Cc1ccc(-c2c(Cl)nc(C#N)n2S(=O)(=O)N(C)C)cc1` [Cyazofamid], the Observed efficacy in the experiment with Septoria tritici (1 ppm) was determined as 2%; in the experiment on Pyricularia oryzae (1 ppm) it was 8%. For the same compound, in the experiment on Leptosphaeria nodorum (setting [1]), the inhibition of growth at 1 ppm was 25%.

`CC1COC(Cn2cncn2)(c2ccc(Oc3ccc(Cl)cc3)cc2Cl)O1` (centres unmarked) [Difenoconazol] gave an Observed efficacy in the experiment on Pyricularia oryzae (1 ppm) of 27%.

In the case of `CC1(C(=O)Nc2ccc(O)c(Cl)c2Cl)CCCCC1` [Fenhexamid], in the experiment with Septoria tritici (16 ppm), the Observed efficacy amounted to 28%. Further, the inhibition of growth at 16 ppm with Leptosphaeria nodorum (setting [1]) came out at 37%.

As to `Cn1cc(C(=O)Nc2ccccc2-c2cc(F)c(F)c(F)c2)c(C(F)F)n1` [Fluxapyroxad], the Observed efficacy in the experiment with Leptosphaeria nodorum (active alone, 0.063 ppm) is reported as 23%; in the experiment on Pyricularia oryzae (0.063 ppm), 7%.

With `CC(C)NC(=O)N1CC(=O)N(c2cc(Cl)cc(Cl)c2)C1=O` [Iprodion], the Observed efficacy in the experiment on Septoria tritici (4 ppm) is 0%; in the experiment with Pyricularia oryzae (4 ppm), 29%. For the same compound, in the experiment with Leptosphaeria nodorum (Parastagonospora nodorum, 168 h, active alone, 4 ppm, read-out: Observed efficacy), the inhibition of growth at 4 ppm was 54%.

In the case of `Cc1ccc(C(C)NC(=O)[C@@H](NC(=O)OC(C)C)C(C)C)cc1` (some centres unmarked) [Iprovalicarb], the Observed efficacy is reported as 13% with Septoria tritici (4 ppm) and 6% in the experiment with Pyricularia oryzae (4 ppm).

Turning to `COCC(=O)N(c1c(C)cccc1C)[C@H](C)C(=O)OC` [Metalaxyl-M], the Observed efficacy in the experiment on Septoria tritici (4 ppm) is 11%; in the experiment with Leptosphaeria nodorum (active alone, 4 ppm), 26%; with Pyricularia oryzae (4 ppm), 8%.

In the experiment on Septoria tritici (0.063 ppm), `CCCN(CCOc1c(Cl)cc(Cl)cc1Cl)C(=O)n1ccnc1` [Prochloraz] showed an Observed efficacy of 20%.

On to `OC(Cc1ccccc1Cl)(Cn1nc[nH]c1=S)C1(Cl)CC1` (centres unmarked) [Prothioconazol], for which the inhibition of growth at 1 ppm in the experiment with Leptosphaeria nodorum (setting [1]) was 52%.

Regarding `COC(=O)N(OC)c1ccccc1COc1ccn(-c2ccc(Cl)cc2)n1` [Pyraclostrobin], the inhibition of growth at 0.25 ppm with Leptosphaeria nodorum (Parastagonospora nodorum, 168 h, active alone, 0.25 ppm, read-out: Observed efficacy) worked out at 57%.

As to `Cc1cc(C)nc(Nc2ccccc2)n1` [Pyrimethanil], in the experiment on Pyricularia oryzae (16 ppm), the Observed efficacy is 72%.

Turning to `CC(C)(C)C(O)(CCc1ccc(Cl)cc1)Cn1cncn1` (centres unmarked) [Tebuconazol], in the experiment on Septoria tritici (0.25 ppm), the Observed efficacy turned out to be 54%.

The record behind these values is US20140121103A1, “COMPOSITIONS COMPRISING FUNGICIDAL SUBSTITUTED DITHIINES AND FURTHER ACTIVES” (BASF SE, priority 2011, published 2014).
